The values below come from US5145869A, “Phenylsulfonylalkanoic acid compounds and pharmaceuticals thereof” (Kissei Pharmaceutical Co., Ltd., priority 1991, dated 1992).

One assay relates to amylase secretion stimulated by CCK-8. Put plainly: Effect on Amylase Secretion in Rats. The assay is classed as in vivo, Male Wistar rats. The note with it: Rattus norvegicus, intraduodenal administration 30 minutes before CCK-8 (10 μg/kg, subcutaneous), anesthetized rats. The protocol:
Effect on Amylase Secretion in Rats
Male Wistar rats were anesthetized with urethane (1.5 g/kg, S.C.), and tracheal cannula was inserted. Biliopancreatic juice was collected from the cannula which had been inserted into the common bile duct. Thirty minutes after intraduodenal administration of test drug, amylase secretion was stimulated by subcutaneous injection of CCK-8 (10 μg/kg). Amylase concentration in the sample collected every 30 minutes during experiment was assayed using Amylase B Test (Wako), and ED50 value was calculated.
Take `CCCCCN(CCCCC)C(=O)C(CCC(=O)O)CS(=O)(=O)c1ccc(Cl)c(Cl)c1` (single isomer, unassigned) [Compound 20]: the ED50 – broadly, the dose at which the effect has come halfway, by size or by number of responders – stood at 4.7 mg/kg.
Same read-out and setting: in the case of `CCCCCN(CCCOC)C(=O)C(CCC(=O)O)CS(=O)(=O)c1ccc(Cl)c(Cl)c1` (racemic) [Compound 22, 5-(3,4-dichlorophenylsulfonyl)-4-[N-(3-methoxypropyl)-N-pentylcarbamoyl]pentanoic acid] it was 9.5 mg/kg; in that of `CCCCCN(CCCCC)C(=O)C(CCC(=O)O)CS(=O)(=O)c1ccc(Cl)c(Cl)c1` (racemic) [Compound 19, 5-(3,4-Dichlorophenylsulfonyl)-4-(N,N-dipentylcarbamoyl)pentanoic acid], 2.2 mg/kg.

Another assay relates to gallbladder contraction induced by CCK-8. Description: CCK-Antagonism in Isolated Gallbladder. The assay is classed as cell-based, male Hartley guinea-pig. The note with it: Cavia porcellus; antagonism of gallbladder strip contraction induced by 10^-8 M CCK-8, 37° C. The method, then: CCK-Antagonism in Isolated Gallbladder
Gallbladder strips isolated from male Hartley guinea-pig were prepared and suspended in Magnus bath filled with Krebs solution (1 g of initial tension). The solution kept at 37° C. was aerated with a mixture of 95% O2 and 5% CO2. The isometric contraction of strips was recorded through a force-displacement transducer. Antagonism by test drugs against gallbladder contraction induced by 10^-8 M CCK-8 was examined and IC50 value was calculated.
With `CCCCCN(CCCCC)C(=O)C(CCC(=O)O)CS(=O)(=O)c1ccc(Cl)c(Cl)c1` (single isomer, unassigned) [Compound 20], the IC50 (in general, the concentration at which inhibition is half-maximal) came to 5100 nM.
On the same count and under the same terms, with `CCCCCN(CCCOC)C(=O)C(CCC(=O)O)CS(=O)(=O)c1ccc(Cl)c(Cl)c1` (racemic) [Compound 22, 5-(3,4-dichlorophenylsulfonyl)-4-[N-(3-methoxypropyl)-N-pentylcarbamoyl]pentanoic acid] the figure was 3400 nM.
Compound `CCCCCN(CCCCC)C(=O)C(CCC(=O)O)CS(=O)(=O)c1ccc(Cl)c(Cl)c1` (racemic) [Compound 19, 5-(3,4-Dichlorophenylsulfonyl)-4-(N,N-dipentylcarbamoyl)pentanoic acid] came in with an IC50 of 11000 nM.

The target of the next assay is T1, CCK-Receptor (Rattus norvegicus, UniProt P30551).
T1 construct: Pancreatic plasma membranes were prepared by the method of Chang et al; from tissue; host or cells: pancreatic plasma membranes of male Wistar rats
T1 sequence (P30551 1-444): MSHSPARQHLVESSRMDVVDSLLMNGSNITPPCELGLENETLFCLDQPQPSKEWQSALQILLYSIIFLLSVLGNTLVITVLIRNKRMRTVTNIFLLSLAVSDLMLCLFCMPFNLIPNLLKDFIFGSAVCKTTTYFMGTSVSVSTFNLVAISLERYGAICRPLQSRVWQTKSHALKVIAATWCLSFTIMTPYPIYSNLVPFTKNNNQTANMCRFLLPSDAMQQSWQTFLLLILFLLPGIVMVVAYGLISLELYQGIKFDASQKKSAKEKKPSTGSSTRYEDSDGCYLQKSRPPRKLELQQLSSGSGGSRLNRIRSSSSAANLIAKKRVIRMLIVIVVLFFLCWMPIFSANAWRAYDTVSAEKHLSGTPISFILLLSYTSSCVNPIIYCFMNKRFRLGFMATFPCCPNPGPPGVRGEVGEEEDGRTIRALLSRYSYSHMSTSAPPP
Description: CCK-Receptor Binding Assay in Pancreas. Set-up: species or system Male Wistar rats. The note with it: inhibition of specific 125I-CCK-8 (30 pM) binding, rat pancreatic plasma membranes, 37° C., 30 minutes, pH 7.4. The method, then: CCK-Receptor Binding Assay in Pancreas
Pancreatic plasma membranes were prepared by the method of Chang et al. (Molecular Pharmacology, Vol. 30, p. 212-, 1986). Male Wistar rats were sacrificed by decapitation and the pancreas was removed. The pancreas was dissected free from adipose tissue and minced in 50 volumes ice-cold Tris-HCl buffer (50 mM, pH 7.4 at 37° C.). Homogenization was performed using ultra disperser and the homogenate was centrifuged at 50,000×g for 10 minutes. The pellet was washed by resuspension in the same volume of fresh Tris-HCl buffer and again centrifuged as above. The final pellet was suspended in assay buffer (50 mM Tris-HCl, 5 mM MgCl2, 5 mM dithiothreitol, 2 mg/ml of bovine serum albumin, and 0.14 mg/ml of bacitracin), and used as receptor sources for binding assay.
Thirty pM ^125 I-CCK-8 (final concentration), test drug or vehicle (for total binding) or 10^-6 M CCK-8 (for nonspecific binding) were added to the assay medium containing pancreatic plasma membranes (0.5 mg of original wet weight/ml). After incubation at 37° C. for 30 minutes, the assay medium was filtrated under reduced pressure through glass fiber filter and washed four times with 4 ml of ice-cold Tris-HCl buffer. The radioactivity trapped on the filter was counted by γ-counter (Packard 5650).
Specific binding was defined as the radioactivity bound after subtracting nonspecific binding determined in the presence of 10^-6 M unlabeled CCK-8. IC50 value was calculated from inhibition percentage of specific binding by each test drug.
Consider `CCCCCN(CCc1ccccc1)C(=O)C(CCC(=O)O)CS(=O)(=O)c1ccc(Cl)c(Cl)c1` (stereo not drawn) [Compound 42, 5-(3,4-dichlorophenylsulfonyl)-4-(N-pentyl-N-phenethylcarbamoyl)pentanoic acid], for which the IC50 turned out to be 210 nM.
Compound `CCCCCN(CCCCC)C(=O)C(CCC(=O)O)CS(=O)(=O)c1ccc(C(C)=O)cc1` (stereo not drawn) [Compound 51, 5-(4-Acetylphenylsulfonyl)-4-(N,N-dipentylcarbamoyl)pentanoic acid] gave an IC50 of 2000 nM.
For the compound `CCCCCN(CCCCC)C(=O)C(CCC(=O)O)CS(=O)(=O)c1ccc(C)cc1` (stereo not drawn) [Compound 49], the IC50 came to 3400 nM.
On the same count and under the same terms, in the case of `CCCCCCN(CCCCCC)C(=O)C(CCC(=O)O)CS(=O)(=O)c1ccc(Cl)c(Cl)c1` (racemic) [Compound 33] it was 59 nM; in that of `CCCCCN(CCCCC)C(=O)C(CCC(=O)O)CS(=O)(=O)c1ccc(Cl)c(Cl)c1` (single isomer, unassigned) [Compound 20], 110 nM; in that of `CC(C)CCN(CCC(C)C)C(=O)C(CCC(=O)O)CS(=O)(=O)c1ccc(Cl)c(Cl)c1` (racemic) [Compound 35], 130 nM.
As for `CCCCN(CCCC)C(=O)C(CCC(=O)O)CS(=O)(=O)c1ccc(Cl)c(Cl)c1` (racemic) [Compound 32], the IC50 came out at 280 nM.
Same read-out and setting: with `CN(Cc1ccccc1)C(=O)C(CCC(=O)O)CS(=O)(=O)c1ccc(Cl)c(Cl)c1` (stereo not drawn) [Compound 47] the figure was 1800 nM; with `CCCCCCN(CCCCc1ccccc1)C(=O)C(CCC(=O)O)CS(=O)(=O)c1ccc(Cl)c(Cl)c1` (stereo not drawn) [Compound 46], 570 nM; with `CCCCCN(CCCc1ccccc1)C(=O)C(CCC(=O)O)CS(=O)(=O)c1ccc(Cl)c(Cl)c1` (stereo not drawn) [Compound 43], 110 nM.
In turn, `O=C(O)CCC(CS(=O)(=O)c1ccc(Cl)c(Cl)c1)C(=O)N(CCCc1ccccc1)CCCc1ccccc1` (stereo not drawn) [Compound 45] displayed an IC50 of 1000 nM.
Still for that read-out and setting: in the case of `CCCCCN(CCCCC)C(=O)C(CCC(=O)O)CS(=O)(=O)c1cccc(Cl)c1` (racemic) [Compound 27] it was 4700 nM.
With `CCCCCN(CCCCC)C(=O)C(CC(=O)O)CS(=O)(=O)c1ccc(Cl)c(Cl)c1` (racemic) [Compound 29], the IC50 amounted to 95 nM.
Consider `CCCCCN(CCCCC)C(=O)C(CCC(=O)O)CS(=O)(=O)c1ccc(Cl)c(Cl)c1` (single isomer, unassigned) [Compound 21], for which the IC50 worked out at 1100 nM.
`CCCCCN(CCCOC)C(=O)C(CCC(=O)O)CS(=O)(=O)c1ccc(Cl)c(Cl)c1` (racemic) [Compound 22, 5-(3,4-dichlorophenylsulfonyl)-4-[N-(3-methoxypropyl)-N-pentylcarbamoyl]pentanoic acid] displayed an IC50 of 230 nM.
Compound `CCCCCN(CCCCC)C(=O)C(CCC(=O)O)CS(=O)(=O)c1ccc(Cl)cc1` (stereo not drawn) [Compound 26] displayed an IC50 of 1000 nM.
For the compound `CCCCCCN(CCCCc1ccccc1)C(=O)C(CCC(=O)OC)CS(=O)(=O)c1ccc(Cl)c(Cl)c1` (stereo not drawn) [Compound 40], the IC50 was found to be 5800 nM.
Compound `CCCCCN(CCCCC)C(=O)C(CCC(=O)O)CS(=O)(=O)c1ccc(C)c(C)c1` (stereo not drawn) [Compound 48] returned an IC50 of 290 nM.
Still for that read-out and setting: with `CCCCCN(CCCCC)C(=O)C(CCCC(=O)OC)CS(=O)(=O)c1ccc(Cl)c(Cl)c1` (stereo not drawn) [Compound 12] the figure was 4800 nM; with `CCCCCN(CCCCC)C(=O)C(CCC(=O)OC)CS(=O)(=O)c1ccc(Cl)c(Cl)c1` (racemic) [Compound 1, Methyl 5-(3,4-dichlorophenylsulfonyl)-4-(N,N-dipentylcarbamoyl)pentanoate], 880 nM.
The compound `CCCCCN(CCCCC)C(=O)C(CCCC(=O)O)CS(=O)(=O)c1ccc(Cl)c(Cl)c1` (racemic) [Compound 30] had an IC50 of 230 nM.
On the same count and under the same terms, with `CCCCCN(CCCCC)C(=O)C(CCC(=O)O)CS(=O)(=O)c1ccc([N+](=O)[O-])cc1` (stereo not drawn) [Compound 50] the figure was 730 nM; with `CCCCCN(CCCCC)C(=O)C(CCC(=O)OCC)CS(=O)(=O)c1ccc(Cl)c(Cl)c1` (stereo not drawn) [Compound 18], 1100 nM; with `CCCCCN(CCCCC)C(=O)C(CCC(=O)O)CS(=O)(=O)c1ccc(Cl)c(Cl)c1` (racemic) [Compound 19, 5-(3,4-Dichlorophenylsulfonyl)-4-(N,N-dipentylcarbamoyl)pentanoic acid], 200 nM.
As for `CCCCCN(CCCCC)C(=O)C(CCC(=O)O)CS(=O)(=O)c1cccc(Br)c1` (racemic) [Compound 28], the IC50 was found to be 3000 nM.
Still for that read-out and setting: in the case of `O=C(O)CCC(CS(=O)(=O)c1ccc(Cl)c(Cl)c1)C(=O)N(CCc1ccccc1)CCc1ccccc1` (stereo not drawn) [Compound 44] it was 230 nM; in that of `CCCCCCCN(CCCCCCC)C(=O)C(CCC(=O)O)CS(=O)(=O)c1ccc(Cl)c(Cl)c1` (racemic) [Compound 34], 430 nM.
On the same count and under the same terms, with `CCCCN(C)C(=O)C(CCC(=O)O)CS(=O)(=O)c1ccc(Cl)c(Cl)c1` (racemic) [Compound 31] the figure was 8800 nM; with `CCCCCN(CCCCC)C(=O)C(CC(=O)OC)CS(=O)(=O)c1ccc(Cl)c(Cl)c1` (stereo not drawn) [Compound 11], 980 nM; with `CCCCCN(CCCOC)C(=O)C(CCC(=O)O)CS(=O)(=O)c1ccc(Cl)c(Cl)c1` (single isomer, unassigned) [Compound 24], 4000 nM.
Same read-out and setting: in the case of `COC(=O)CCC(CS(=O)(=O)c1ccc(Cl)c(Cl)c1)C(=O)N(C)Cc1ccccc1` (stereo not drawn) [Compound 41, methyl 4-(N-benzyl-N-methylcarbamoyl)-5-(3,4-dichlorophenylsulfonyl)pentanoate] it was 3500 nM.
The compound `CCCCCN(CCCOC)C(=O)C(CCC(=O)O)CS(=O)(=O)c1ccc(Cl)c(Cl)c1` (single isomer, unassigned) [Compound 23] displayed an IC50 of 290 nM.
Still for that read-out and setting: with `CCCCCN(CCCCC)C(=O)C(CCC(=O)O)CS(=O)(=O)c1cc(Cl)cc(Cl)c1` (stereo not drawn) [Compound 25] the figure was 1500 nM.
